US9880171B2, “iASPP phosphorylation and metastatic potential” (LUDWIG INSTITUTE FOR CANCER RESEARCH LTD., priority 2012, dated 2018)
“Also recorded” adds a separate entry of the source.

What was measured:
[1] = tested on: WM278, Me300 and SK-MEL37 melanoma cells; assay: apoptosis by Annexin V / Sub-G1 FACS analysis, Example 10, human melanoma cells; assay type: cell-based; conditions: for apoptosis: agent alone, JNJ 0.4 μM, Nutlin3 10-20 μM, 72 hours, melanoma cell lines
Method: (§1) FIG. 20. Restoring p53 by inhibiting mdm2 and iASPP suppresses melanoma growth in vitro and in vivo. FIG. 20A. H1299 cells were treated with DMSO or 10 μM nocodazole in the presence or absence of 2 or 10 μM of mitosis-related kinase inhibitors as indicated. […] FIG. 20B. Left panel: representative p53 level after Nutlin3 treatment for 24 hours in a variety of cells. Right bar graphs show the sub-G1 proportion of WM278 after treatment as that described in FIG. 19B (in upper panel, 10 μM and 20 μM Nutlin3 were used in parallel for comparison). From left to right of the upper right bar graph of FIG. 20B, the bars correspond to DMSO, Nut and JNJ+Nut, respectively. From left to right of the bottom bar graph of FIG. 20B, the bars correspond to DMSO, JNJ, Nut and JNJ+Nut, respectively. FIG. 20C. Me300, SK-MEL37, and B16 cells were treated as above (For B16 panel, 10 μM Nutlin3 was used) and sub-G1 proportion was analyzed. In (B) and (C), the bar graphs (mean±SD) were derived from three independent experiments. *p<0.05. FIG. 20D. Left panel: untreated B16 cells were subcutaneously injected into mice at day 1. […] Compound administration and tumor size measurement were repeated every two days from day 7 onwards. Bar graphs are shown as mean±SD (*p<0.05, n=6). FIG. 20E. Lower panels show representative images of isolated tumors. Right panel: representative H & E staining in B16 tumor section. Bar=20 μm.
FIG. 21. Restoring apoptotic function of p53 cooperates with BRAFV600E inhibition to suppress human melanoma cell growth.

[2] = tested on: WM278, Me300 and SK-MEL37 melanoma cells; assay: colony formation assay, Example 10, human melanoma cells; assay type: cell-based; conditions: agent alone; melanoma cell lines
From the text: FIG. 21. Restoring apoptotic function of p53 cooperates with BRAFV600E inhibition to suppress human melanoma cell growth. […] The bar graphs (mean±SD) were derived from three independent experiments. *p<0.05. Lower images show representative Annexin V/7-AAD profile and dishes, respectively. FIG. 21C. Diagrams showing how cyclinB1/cdk1 phosphorylation controls iASPP localization in interphase (interphase) or mitosis or tumor cells (mitosis/melanomas). Blue and red stars (*) indicate the C- and N-terminal contact residues and the phosphorylation status is labeled as (P). The bottom diagram summarizes the pathways that PLX4032, Nutlin3 and JNJ used to suppress melanoma cell growth.

[3] = tested on: iASPP modification and p53-iASPP binding in WM278 cells; assay: iASPP modification and p53 co-immunoprecipitation in WM278 cells; assay type: cell-based, human
Method: For WB, cells were lysed in buffer containing 8 M urea, 1 M thiourea, 0.5% CHAPS, 50 mM DTT, and 24 mM spermine. A total of 40 μg of protein extract was loaded per lane into SDS-polyacrylamide gels. Gels were transferred onto nitrocellulose membrane (Protran) and the resulting blots incubated first with primary antibody overnight at 4° C. and then with the appropriate secondary horseradish peroxidize-conjugated antibody (Dako). The results were visualized by enhanced chemiluminescent detection (Amersham Biosciences) using X-ray film (Fujifilm). For cell lysate immunoprecipitation, cells were dissolved in NP40 buffer (50 mM Tris-HCl pH 8.0, 150 mM NaCl, 1% NP-40) with protease inhibitor cocktail mix (Roche Diagnostics). Cells were further thoroughly broken by ultrasonication, followed by spinning for 1 hour. Achieved suspension was adjusted to 1-2 mg/ml using NP40 buffer and incubated with 20 μl nickel beads, glutathione beads, or protein A beads (with 2 μg required antibody) for 2 h at room temperature. The beads were washed for four times with NP40 buffer, boiled for 5 min in Laemmli sample buffer, and applied for Western blotting. For pure protein immunoprecipitation, 5-10 μg purified proteins were mixed in NP40 buffer with 1 mg/ml BSA for 2 h at room temperature.

B16 melanoma cells = assay: xenograft assay, B16 cells treated in vitro and injected into C57BL/6 mice; assay type: in vivo; conditions: 13 days after injection of in vitro treated B16 cells
Method: At day 1, C57BL/6 mice (7-9 weeks old) were injected s.c. at flanks with 1×10^6 B16 melanoma cells in 100 μl PBS (component treated cells for FIG. 19C, untreated cells for FIGS. 19D and 20D). Component (Nutlin3 (40 mg/kg) or JNJ-7706621 (also referred to herein as “JNJ”, 30 mg/kg)) was dissolved in DMSO and i.p. administered every two days since day 3, or day 7 (no component administration for FIG. 19C). Tumor size was measured every two days with vernier caliper. Tumor volumes were calculated using the following formula: (L*W*W)/2, in which L represents the larger diameter of the tumor, and W represents the smaller diameter. On day 13 (tumor area reach ˜1.2 cm diameter in DMSO group), all mice were sacrificed and tumors were isolated and weighed.
Mouse B16 melanoma cells are known to form highly aggressive melanoma in vivo in immune competent C57BL/6 syngeneic mice. Because regulation of p53 by iASPP and mdm2 exists in both human WM278 cells and mouse B16 cells, experiments were carried out to determine if restoring p53 function in B16 cells is able to suppress tumor growth in C57BL/6 mice in vivo. B16 cells, treated with (1) DMSO, (2) Nutlin3, (3) JNJ, or (4) Nutlin3+JNJ, were injected into the flank of 7-9 week-old female C57BL/6 mice.

B16 melanoma = assay: xenograft assay, untreated B16 cells, compounds given i.p.; assay type: in vivo, C57BL/6 mice; design: concentration or dose not given beside the values
Method: as §1
At day 1, C57BL/6 mice (7-9 weeks old) were injected s.c. at flanks with 1×10^6 B16 melanoma cells in 100 μl PBS (component treated cells for FIG. 19C, untreated cells for FIGS. 19D and 20D).

[4] = tested on: nuclear iASPP and p53 in B16 tumors; assay: immunofluorescence staining of iASPP and p53 in B16 tumor sections; assay type: in vivo, C57BL/6 mice; conditions: tumor sections from i.p. treated mice
[5] = tested on: WM278, Me300 and SK-MEL37 melanoma cell lines; assay: clonogenic survival / colony formation assay, Example 8
Method: Cells were transfected with siRNA as shown and pre-seeded on 6 well plates ON, 0.3 μM cyclin B1/cdk1 inhibitors K00616a were then added for 48 hours to block iASPP modification. Cells were then treated with 0.3 μM K00616a, 20 μM nutlin3, or combinations of these drugs for another 72 hours. Cells were collected and cell cycle status, growth potential, and protein expression pattern were then determined by PI staining/FACS analysis, colony formation assay, and WB, respectively. […] Cells were pre-seeded on 6 well plates for overnight, 0.3 μM cyclin B1/cdk1 inhibitors K00616a were then added for 48 hours to block iASPP modification. Cells were then treated with 0.3 μM K00616a, 20 μM nutlin3, 1 μM PLX4032, or combinations of these drug for another 72 hours. Cells were collected and cell cycle status, growth potential, and protein expression pattern were then determined by PI staining/FACS analysis, colony formation assay, and WB, respectively.
After drugs treatment, cells were digested, counted, and seed in 6-well plates (100, 1 000, 10 000 cells/well). […]
The ability of K00616a to reactivate wild type p53 function in melanoma cells was tested in three melanoma cell lines that all express B-RAFV600E. […] Wild type p53 function was measured by a p53-dependent apoptosis assay, detecting the percentage of cells containing subG1 DNA content and growth suppression in a clonogenic survival assay.

[6] = i.p. administration from day 3 after B16 inoculation
[7] = i.p. administration from day 7 after B16 inoculation

SMILES: Nc1nc(Nc2ccc(S(N)(=O)=O)cc2)nn1C(=O)c1c(F)cccc1F [JNJ-7706621]
- increase in Nutlin3-induced apoptosis ([1]; Me300 and WM278 cells, Annexin V or Sub-G1): 3-4 fold
- apoptosis [1]: only a small percentage of cells
- suppression of cell growth [2]: limited
- amount of modified iASPP ([3]; 0.4 μM JNJ or 10 μM nocodazole overnight): reduced the amount of modified iASPP
- binding of iASPP to p53 (co-immunoprecipitation) ([3]; 0.4 μM JNJ, listed as JNJ): failed to co-immunoprecipitate iASPP; also recorded: able to prevent iASPP from binding to p53
- tumor size and weight, of control (DMSO-treated B16 cell group) (B16 melanoma cells): around 40%
- suppression of B16 melanoma growth (B16 melanoma; [6]): 36%
- suppression of B16 melanoma growth (B16 melanoma; [7]): 30%
- iASPP expression in B16 tumors [4]: clearly reduced nuclear iASPP expression
- p53 expression in B16 tumors [4]: no effect on p53 expression

SMILES: COc1ccc(C2=N[C@@H](c3ccc(Cl)cc3)[C@@H](c3ccc(Cl)cc3)N2C(=O)N2CCNC(=O)C2)c(OC(C)C)c1 [Nutlin3]
- apoptosis [1]: only a small percentage of cells
- suppression of cell growth [2]: limited
- tumor size and weight, of control (DMSO-treated B16 cell group) (B16 melanoma cells): ~60%
- suppression of B16 melanoma growth (B16 melanoma; [6]): 22%
- suppression of B16 melanoma growth (B16 melanoma; [7]): 5%
- iASPP expression in B16 tumors [4]: minimal impact on iASPP expression
- p53 expression in B16 tumors [4]: induced nuclear p53 expression
- growth suppression (colonies) ([5]; WM278, Me300 and SK-MEL37, agent alone): limited
- effect on the growth suppression effects of PLX4032 ([5]; added alone to PLX4032): minimal effect
